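Each compound was tested at five concentrations against cells in 96-well plates for 48 hours. The concentration for 50% growth inhibition is given as GI50.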 Active and inactive are the calls of the source. Cut-off read from the data, not from the text of the source: active = GI50 up to about 1.1 µM and inactive = higher.
Columns and labels:
Assay in all cases: inhibition of tumour cell growth, NCI panel, 48 h
A549 = tested on: A549
ACHN = tested on: ACHN
CAKI-1 = tested on: CAKI-1
EKVX = tested on: EKVX
HL-60 = tested on: HL-60
HOP-62 = tested on: HOP-62
HOP-92 = tested on: HOP-92
Hs-578T = tested on: Hs-578T
M14 = tested on: M14
MDA-MB-435 = tested on: MDA-MB-435
MDA-N = tested on: MDA-N
NCI-H226 = tested on: NCI-H226
NCI-H460 = tested on: NCI-H460
NCI/ADR-RES = tested on: NCI/ADR-RES
RXF 393 = tested on: RXF 393
SK-MEL-2 = tested on: SK-MEL-2
SK-OV-3 = tested on: SK-OV-3
SR = tested on: SR
TK-10 = tested on: TK-10
UACC-62 = tested on: UACC-62

Compound	GI50 (A549)	GI50 (ACHN)	GI50 (CAKI-1)	GI50 (EKVX)	GI50 (HL-60)	GI50 (HOP-62)	GI50 (HOP-92)	GI50 (Hs-578T)	GI50 (M14)	GI50 (MDA-MB-435)	GI50 (MDA-N)	GI50 (NCI-H226)	GI50 (NCI-H460)	GI50 (NCI/ADR-RES)	GI50 (RXF 393)	GI50 (SK-MEL-2)	GI50 (SK-OV-3)	GI50 (SR)	GI50 (TK-10)	GI50 (UACC-62)
COc1ccc(/C=C2\CCS(=O)(=O)c3ccccc3C2=O)cc1OC	> 100 µM (inactive)	27.5 µM (inactive)	58.6 µM (inactive)	38.2 µM (inactive)	17.4 µM (inactive)	38.5 µM (inactive)	19.6 µM (inactive)	20.7 µM (inactive)	38.9 µM (inactive)	30.7 µM (inactive)	45.4 µM (inactive)	29.1 µM (inactive)	18.3 µM (inactive)	28.8 µM (inactive)	54.8 µM (inactive)	35.4 µM (inactive)	51.3 µM (inactive)	43.5 µM (inactive)	26.9 µM (inactive)	16.7 µM (inactive)
CC(C)NC(=O)OCc1c(COC(=O)NC(C)C)c(-c2cc[n+](COC(=O)C3CCCCC3)cc2)n2c1CCC2	> 100 µM (inactive)	44.9 µM (inactive)	50 µM (inactive)	> 100 µM (inactive)	32.4 µM (inactive)	> 100 µM (inactive)	> 100 µM (inactive)	> 100 µM (inactive)	> 100 µM (inactive)	> 100 µM (inactive)	> 100 µM (inactive)	> 100 µM (inactive)	70 µM (inactive)	> 100 µM (inactive)	> 100 µM (inactive)	> 100 µM (inactive)	> 100 µM (inactive)	9.25 µM (inactive)	> 100 µM (inactive)	99.8 µM (inactive)
C=C1CC[C@@H](C)[C@](C)(CCc2ccoc2)C/C=C\C=C/1C(=O)O	36.2 µM (inactive)	53.2 µM (inactive)	31.6 µM (inactive)	64.6 µM (inactive)	16.5 µM (inactive)	44.8 µM (inactive)	62.2 µM (inactive)	71 µM (inactive)	32.4 µM (inactive)	37.6 µM (inactive)	22 µM (inactive)	35.6 µM (inactive)	30.2 µM (inactive)	25.7 µM (inactive)	29.9 µM (inactive)	19.1 µM (inactive)	69.2 µM (inactive)	23 µM (inactive)	> 100 µM (inactive)	31.2 µM (inactive)
CC(=O)c1ccc(Nc2c3c(nc4ccccc24)CCCC3)cc1	19 µM (inactive)	38.3 µM (inactive)	16.4 µM (inactive)	28 µM (inactive)	2.73 µM (inactive)	10.3 µM (inactive)	21.1 µM (inactive)	27.9 µM (inactive)	12.6 µM (inactive)	1.96 µM (inactive)	2.72 µM (inactive)	14 µM (inactive)	17.5 µM (inactive)	10.4 µM (inactive)	20.5 µM (inactive)	24 µM (inactive)	26.7 µM (inactive)	2.47 µM (inactive)	42.5 µM (inactive)	17.1 µM (inactive)
CCOC(=O)NC(Nc1ccc(F)cc1F)(C(F)(F)F)C(F)(F)F	> 100 µM (inactive)	> 100 µM (inactive)	> 100 µM (inactive)	> 100 µM (inactive)	> 100 µM (inactive)	> 100 µM (inactive)	> 100 µM (inactive)	> 100 µM (inactive)	> 100 µM (inactive)	> 100 µM (inactive)	> 100 µM (inactive)	> 100 µM (inactive)	> 100 µM (inactive)	> 100 µM (inactive)	> 100 µM (inactive)	> 100 µM (inactive)	> 100 µM (inactive)	> 100 µM (inactive)	> 100 µM (inactive)	> 100 µM (inactive)
C=CCOc1ccccc1/N=N/C(C#N)=N\Nc1ccccc1OCC=C	> 100 µM (inactive)	> 100 µM (inactive)	> 100 µM (inactive)	> 100 µM (inactive)	> 100 µM (inactive)	> 100 µM (inactive)	62.1 µM (inactive)	> 100 µM (inactive)	> 100 µM (inactive)	41.9 µM (inactive)	27.2 µM (inactive)	> 100 µM (inactive)	> 100 µM (inactive)	> 100 µM (inactive)	> 100 µM (inactive)	> 100 µM (inactive)	> 100 µM (inactive)	> 100 µM (inactive)	> 100 µM (inactive)	> 100 µM (inactive)
CC(=O)Nc1cc(C(=O)Nc2cc(C(=O)N3CC(CCl)c4c3cc(N)c3ccccc43)nn2C)nn1C (stereo not given)	0.187 µM (active)	< 0.0148 µM (active)	< 0.0393 µM (active)	0.159 µM (active)	< 0.01 µM (active)	0.101 µM (active)	< 0.0218 µM (active)	0.176 µM (active)	0.286 µM (active)	0.138 µM (active)	0.133 µM (active)	< 0.0232 µM (active)	< 0.01 µM (active)	0.541 µM (active)	0.0115 µM (active)	0.0731 µM (active)	0.0362 µM (active)	< 0.01 µM (active)	0.251 µM (active)	< 0.0118 µM (active)

From ChEMBL document CHEMBL1201862, “PubChem BioAssay data set” (2004)
